According to ChEMBL document CHEMBL4507273 (2021):

Columns and labels:
[1] = biological target: TGF-beta receptor type-1 (Homo sapiens) (UniProt P36897); conditions: Compound concentration 1000.0 nM
[2] = biological target: Serine/threonine-protein kinase Sgk2 (Homo sapiens) (UniProt Q9HBY8); conditions: Compound concentration 1000.0 nM
[3] = system: Epidermal growth factor receptor (Homo sapiens), P00533 [UNDEFINED MUTATION]; conditions: Compound concentration 1000.0 nM
[4] = biological target: Receptor-type tyrosine-protein kinase FLT3 (Homo sapiens) (UniProt P36888); conditions: Compound concentration 1000.0 nM
[5] = biological target: Protein-tyrosine kinase 2-beta (Homo sapiens) (UniProt Q14289); conditions: Compound concentration 1000.0 nM
[6] = biological target: Interferon-induced, double-stranded RNA-activated protein kinase (Homo sapiens) (UniProt P19525); conditions: Compound concentration 1000.0 nM
[7] = biological target: Mitogen-activated protein kinase kinase kinase 1 (Homo sapiens) (UniProt Q13233); conditions: Compound concentration 1000.0 nM
[8] = biological target: Serine/threonine-protein kinase 17B (Homo sapiens) (UniProt O94768); conditions: Compound concentration 1000.0 nM
[9] = biological target: 5-hydroxytryptamine receptor 2B (Homo sapiens, UniProt P41595); conditions: Compound concentration 10.0 uM
[10] = biological target: Mitogen-activated protein kinase 4 (Homo sapiens) (UniProt P31152); conditions: Compound concentration 1000.0 nM
[11] = biological target: Casein kinase II subunit alpha' (Homo sapiens) (UniProt P19784); conditions: Compound concentration 1000.0 nM
[12] = biological target: T1, Alpha-2B adrenergic receptor (Homo sapiens) (UniProt P18089); conditions: Compound concentration 10.0 uM
T1 sequence (whole entry): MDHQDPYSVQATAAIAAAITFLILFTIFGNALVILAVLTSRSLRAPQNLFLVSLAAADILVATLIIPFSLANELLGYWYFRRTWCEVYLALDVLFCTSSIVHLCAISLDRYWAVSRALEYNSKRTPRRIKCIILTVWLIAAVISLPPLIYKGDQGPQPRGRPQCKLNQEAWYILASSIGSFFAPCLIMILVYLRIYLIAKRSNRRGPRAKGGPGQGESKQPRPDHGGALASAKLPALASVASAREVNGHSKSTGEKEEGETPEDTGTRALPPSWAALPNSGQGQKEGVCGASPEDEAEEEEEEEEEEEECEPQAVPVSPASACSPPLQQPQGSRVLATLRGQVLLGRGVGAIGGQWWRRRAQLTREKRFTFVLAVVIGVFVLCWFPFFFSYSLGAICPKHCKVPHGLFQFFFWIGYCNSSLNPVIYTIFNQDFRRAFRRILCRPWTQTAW

[13] = biological target: Sodium-dependent dopamine transporter (Homo sapiens, UniProt Q01959); conditions: Compound concentration 10.0 uM
[14] = biological target: Wee1-like protein kinase 2 (Homo sapiens) (UniProt P0C1S8); conditions: Compound concentration 1000.0 nM
[15] = biological target: Tyrosine-protein kinase receptor Tie-1 (Homo sapiens) (UniProt P35590); conditions: Compound concentration 1000.0 nM
[16] = biological target: T2, Histamine H2 receptor (Homo sapiens, UniProt P25021); assay: GPCRScan assay: inhibition of H2; set-up: radioligand conc. used [nm] 0.02 – 0.05, parental cells Stable HEK
[17] = biological target: Cyclin-dependent kinase 11A (Homo sapiens) (UniProt Q9UQ88); conditions: Compound concentration 1000.0 nM
[18] = biological target: Serine/threonine-protein kinase Nek3 (Homo sapiens) (UniProt P51956); conditions: Compound concentration 1000.0 nM
[19] = biological target: Dual specificity tyrosine-phosphorylation-regulated kinase 2 (Homo sapiens) (UniProt Q92630); conditions: Compound concentration 1000.0 nM
[20] = system: Hepatocyte growth factor receptor (Homo sapiens), P08581 [M1250T]; conditions: Compound concentration 1000.0 nM
[21] = biological target: Dual specificity mitogen-activated protein kinase kinase 7 (Homo sapiens) (UniProt O14733); conditions: Compound concentration 1000.0 nM
[22] = biological target: Serine/threonine-protein kinase Nek11 (Homo sapiens) (UniProt Q8NG66); conditions: Compound concentration 1000.0 nM
[23] = biological target: Serine/threonine-protein kinase Nek2 (Homo sapiens) (UniProt P51955); conditions: Compound concentration 1000.0 nM
[24] = biological target: Receptor-interacting serine/threonine-protein kinase 4 (Homo sapiens) (UniProt P57078); conditions: Compound concentration 1000.0 nM
[25] = biological target: STE20/SPS1-related proline-alanine-rich protein kinase (Homo sapiens) (UniProt Q9UEW8); conditions: Compound concentration 1000.0 nM
[26] = biological target: Hepatocyte growth factor receptor (Homo sapiens) (UniProt P08581); conditions: Compound concentration 1000.0 nM
[27] = biological target: Tyrosine-protein kinase BTK (Homo sapiens) (UniProt Q06187); conditions: Compound concentration 1000.0 nM
[28] = biological target: Dual specificity testis-specific protein kinase 1 (Homo sapiens) (UniProt Q15569); conditions: Compound concentration 1000.0 nM
[29] = biological target: Cyclin-dependent kinase 19 (Homo sapiens) (UniProt Q9BWU1); conditions: Compound concentration 1000.0 nM
[30] = biological target: Dual specificity mitogen-activated protein kinase kinase 5 (Homo sapiens) (UniProt Q13163); conditions: Compound concentration 1000.0 nM
[31] = biological target: Mitogen-activated protein kinase kinase kinase 5 (Homo sapiens) (UniProt Q99683); conditions: Compound concentration 1000.0 nM
[32] = biological target: Calcium/calmodulin-dependent protein kinase type 1G (Homo sapiens) (UniProt Q96NX5); conditions: Compound concentration 1000.0 nM
[33] = system: Phosphatidylinositol 4,5-bisphosphate 3-kinase catalytic subunit alpha isoform (Homo sapiens), P42336 [C420R]; conditions: Compound concentration 1000.0 nM
[34] = biological target: T2, Histamine H2 receptor; conditions: Compound concentration 10.0 uM
[35] = biological target: Tyrosine-protein kinase Lyn (Homo sapiens) (UniProt P07948); conditions: Compound concentration 1000.0 nM
[36] = biological target: Serine/threonine-protein kinase DCLK1 (Homo sapiens) (UniProt O15075); conditions: Compound concentration 1000.0 nM
[37] = biological target: Mitogen-activated protein kinase 7 (Homo sapiens) (UniProt Q13164); conditions: Compound concentration 1000.0 nM
[38] = biological target: Serine/threonine-protein kinase NLK (Homo sapiens) (UniProt Q9UBE8); conditions: Compound concentration 1000.0 nM
[39] = system: Tyrosine-protein kinase ABL1 (Homo sapiens), P00519 [T315I]; conditions: Compound concentration 1000.0 nM

T2 sequence (P25021 whole entry): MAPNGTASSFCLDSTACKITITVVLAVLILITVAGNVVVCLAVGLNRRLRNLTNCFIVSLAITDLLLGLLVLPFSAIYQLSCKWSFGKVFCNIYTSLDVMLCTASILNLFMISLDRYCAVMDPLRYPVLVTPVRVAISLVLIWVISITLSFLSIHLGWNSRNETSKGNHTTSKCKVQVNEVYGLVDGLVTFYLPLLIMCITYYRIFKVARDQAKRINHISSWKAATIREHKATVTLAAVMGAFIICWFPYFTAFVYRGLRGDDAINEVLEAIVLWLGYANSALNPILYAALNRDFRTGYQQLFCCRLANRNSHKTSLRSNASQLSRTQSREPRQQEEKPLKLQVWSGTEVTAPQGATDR
TGF-beta receptor type-1 (Homo sapiens), sequence (P36897 whole entry): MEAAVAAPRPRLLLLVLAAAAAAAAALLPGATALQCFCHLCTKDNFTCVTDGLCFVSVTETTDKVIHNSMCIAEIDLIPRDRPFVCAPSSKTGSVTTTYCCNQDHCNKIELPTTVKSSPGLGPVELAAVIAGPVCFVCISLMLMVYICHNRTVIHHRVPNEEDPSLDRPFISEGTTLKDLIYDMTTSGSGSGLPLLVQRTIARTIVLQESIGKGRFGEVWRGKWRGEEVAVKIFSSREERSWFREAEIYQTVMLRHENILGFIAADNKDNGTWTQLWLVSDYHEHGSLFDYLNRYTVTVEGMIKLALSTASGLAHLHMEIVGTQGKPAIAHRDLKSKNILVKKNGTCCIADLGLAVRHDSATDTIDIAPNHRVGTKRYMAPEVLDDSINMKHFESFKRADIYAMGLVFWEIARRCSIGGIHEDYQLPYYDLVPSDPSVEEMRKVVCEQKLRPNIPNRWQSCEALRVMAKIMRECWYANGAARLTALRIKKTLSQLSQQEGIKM
Epidermal growth factor receptor (Homo sapiens), P00533 [UNDEFINED MUTATION], sequence (P00533 whole entry, looked up, change not shown): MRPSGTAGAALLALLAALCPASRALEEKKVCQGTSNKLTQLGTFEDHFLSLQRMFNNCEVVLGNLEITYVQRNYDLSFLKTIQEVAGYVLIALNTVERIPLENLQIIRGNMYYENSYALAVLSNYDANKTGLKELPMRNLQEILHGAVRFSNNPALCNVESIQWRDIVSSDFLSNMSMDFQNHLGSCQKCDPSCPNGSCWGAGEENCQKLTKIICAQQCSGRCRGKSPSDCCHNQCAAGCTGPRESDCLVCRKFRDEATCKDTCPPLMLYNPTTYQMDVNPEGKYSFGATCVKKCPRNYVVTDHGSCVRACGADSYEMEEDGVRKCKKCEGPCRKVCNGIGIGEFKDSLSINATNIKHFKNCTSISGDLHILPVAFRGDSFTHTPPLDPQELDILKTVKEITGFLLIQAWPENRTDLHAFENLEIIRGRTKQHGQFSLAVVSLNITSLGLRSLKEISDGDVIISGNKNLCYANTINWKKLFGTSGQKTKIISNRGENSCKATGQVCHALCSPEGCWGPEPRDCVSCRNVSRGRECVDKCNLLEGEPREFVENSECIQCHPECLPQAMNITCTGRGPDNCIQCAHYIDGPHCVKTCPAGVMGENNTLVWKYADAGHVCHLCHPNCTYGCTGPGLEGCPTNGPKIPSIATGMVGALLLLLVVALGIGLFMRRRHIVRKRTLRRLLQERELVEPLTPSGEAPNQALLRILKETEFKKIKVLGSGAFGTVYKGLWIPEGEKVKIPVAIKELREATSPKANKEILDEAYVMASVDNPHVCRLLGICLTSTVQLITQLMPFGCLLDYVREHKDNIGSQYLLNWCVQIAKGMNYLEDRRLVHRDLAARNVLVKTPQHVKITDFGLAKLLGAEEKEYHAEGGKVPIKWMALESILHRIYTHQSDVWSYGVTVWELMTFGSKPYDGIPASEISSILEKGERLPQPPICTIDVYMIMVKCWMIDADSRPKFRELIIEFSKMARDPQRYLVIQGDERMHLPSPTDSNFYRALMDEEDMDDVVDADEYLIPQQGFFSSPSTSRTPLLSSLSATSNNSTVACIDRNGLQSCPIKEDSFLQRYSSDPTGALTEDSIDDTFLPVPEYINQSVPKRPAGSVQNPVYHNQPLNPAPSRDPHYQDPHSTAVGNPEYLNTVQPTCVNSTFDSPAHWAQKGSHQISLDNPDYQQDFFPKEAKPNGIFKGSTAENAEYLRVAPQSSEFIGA
Dual specificity testis-specific protein kinase 1 (Homo sapiens), sequence (Q15569 whole entry, looked up): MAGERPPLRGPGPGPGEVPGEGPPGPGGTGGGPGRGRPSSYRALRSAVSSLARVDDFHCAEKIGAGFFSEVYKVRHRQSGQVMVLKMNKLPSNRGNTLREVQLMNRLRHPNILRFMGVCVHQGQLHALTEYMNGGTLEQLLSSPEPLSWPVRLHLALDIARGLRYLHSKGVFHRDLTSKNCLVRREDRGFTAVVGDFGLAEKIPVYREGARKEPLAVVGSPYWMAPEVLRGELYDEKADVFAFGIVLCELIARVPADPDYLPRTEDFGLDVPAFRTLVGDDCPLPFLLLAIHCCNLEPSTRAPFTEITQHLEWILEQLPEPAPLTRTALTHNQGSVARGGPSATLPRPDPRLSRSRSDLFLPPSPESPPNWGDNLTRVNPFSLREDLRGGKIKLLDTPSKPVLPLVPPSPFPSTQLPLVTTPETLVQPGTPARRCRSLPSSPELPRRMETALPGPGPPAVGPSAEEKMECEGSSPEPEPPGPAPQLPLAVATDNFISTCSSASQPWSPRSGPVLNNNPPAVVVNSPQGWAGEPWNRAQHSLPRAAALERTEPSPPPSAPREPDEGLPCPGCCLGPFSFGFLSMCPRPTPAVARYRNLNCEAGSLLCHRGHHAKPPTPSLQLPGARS
Serine/threonine-protein kinase 17B (Homo sapiens), sequence (O94768 whole entry): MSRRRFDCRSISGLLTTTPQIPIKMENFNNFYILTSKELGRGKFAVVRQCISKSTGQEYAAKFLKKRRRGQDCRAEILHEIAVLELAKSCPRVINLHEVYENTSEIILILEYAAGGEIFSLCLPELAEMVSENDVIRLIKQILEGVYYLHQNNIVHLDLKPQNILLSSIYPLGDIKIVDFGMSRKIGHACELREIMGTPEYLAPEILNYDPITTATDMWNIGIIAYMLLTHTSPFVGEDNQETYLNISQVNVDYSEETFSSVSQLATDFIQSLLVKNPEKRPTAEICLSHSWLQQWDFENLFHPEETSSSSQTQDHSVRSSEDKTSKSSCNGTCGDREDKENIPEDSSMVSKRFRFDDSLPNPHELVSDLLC
Serine/threonine-protein kinase Nek3 (Homo sapiens), sequence (P51956 whole entry): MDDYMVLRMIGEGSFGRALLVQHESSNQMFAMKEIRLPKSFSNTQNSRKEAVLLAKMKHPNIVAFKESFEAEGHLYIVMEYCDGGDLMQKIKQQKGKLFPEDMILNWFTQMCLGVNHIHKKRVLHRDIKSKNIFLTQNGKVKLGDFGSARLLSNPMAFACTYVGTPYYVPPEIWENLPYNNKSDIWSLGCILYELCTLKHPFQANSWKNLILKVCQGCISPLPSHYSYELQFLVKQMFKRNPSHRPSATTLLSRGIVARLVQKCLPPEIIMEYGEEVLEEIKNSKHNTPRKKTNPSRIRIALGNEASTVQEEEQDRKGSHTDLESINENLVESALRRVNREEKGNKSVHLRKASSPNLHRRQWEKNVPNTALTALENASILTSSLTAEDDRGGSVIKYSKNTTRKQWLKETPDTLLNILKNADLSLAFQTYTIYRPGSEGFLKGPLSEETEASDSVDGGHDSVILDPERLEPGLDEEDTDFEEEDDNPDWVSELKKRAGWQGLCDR
Receptor-type tyrosine-protein kinase FLT3 (Homo sapiens), sequence (P36888 whole entry): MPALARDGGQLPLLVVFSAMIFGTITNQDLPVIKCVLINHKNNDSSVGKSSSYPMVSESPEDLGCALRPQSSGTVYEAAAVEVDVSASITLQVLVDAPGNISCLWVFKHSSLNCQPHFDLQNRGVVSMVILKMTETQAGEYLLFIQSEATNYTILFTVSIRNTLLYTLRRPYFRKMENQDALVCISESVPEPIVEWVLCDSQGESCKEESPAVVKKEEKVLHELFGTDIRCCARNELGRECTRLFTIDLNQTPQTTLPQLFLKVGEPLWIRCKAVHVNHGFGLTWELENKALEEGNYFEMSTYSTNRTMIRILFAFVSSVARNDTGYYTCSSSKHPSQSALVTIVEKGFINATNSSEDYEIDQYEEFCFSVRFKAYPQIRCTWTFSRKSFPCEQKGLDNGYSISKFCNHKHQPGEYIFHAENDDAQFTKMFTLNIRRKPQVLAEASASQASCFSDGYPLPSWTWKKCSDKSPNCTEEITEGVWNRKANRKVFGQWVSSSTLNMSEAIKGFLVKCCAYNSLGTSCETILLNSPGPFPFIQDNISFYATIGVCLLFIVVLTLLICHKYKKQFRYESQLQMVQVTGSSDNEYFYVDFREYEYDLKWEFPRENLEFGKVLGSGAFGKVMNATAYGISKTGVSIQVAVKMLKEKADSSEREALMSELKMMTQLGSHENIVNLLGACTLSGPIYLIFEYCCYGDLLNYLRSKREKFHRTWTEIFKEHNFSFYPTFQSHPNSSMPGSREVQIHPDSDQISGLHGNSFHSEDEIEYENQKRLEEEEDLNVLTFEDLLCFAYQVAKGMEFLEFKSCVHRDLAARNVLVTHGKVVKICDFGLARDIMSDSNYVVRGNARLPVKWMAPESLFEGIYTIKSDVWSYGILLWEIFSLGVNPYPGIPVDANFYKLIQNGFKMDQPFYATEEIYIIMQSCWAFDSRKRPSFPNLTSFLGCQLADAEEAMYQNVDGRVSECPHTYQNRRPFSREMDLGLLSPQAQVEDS
5-hydroxytryptamine receptor 2B, sequence (P41595 whole entry): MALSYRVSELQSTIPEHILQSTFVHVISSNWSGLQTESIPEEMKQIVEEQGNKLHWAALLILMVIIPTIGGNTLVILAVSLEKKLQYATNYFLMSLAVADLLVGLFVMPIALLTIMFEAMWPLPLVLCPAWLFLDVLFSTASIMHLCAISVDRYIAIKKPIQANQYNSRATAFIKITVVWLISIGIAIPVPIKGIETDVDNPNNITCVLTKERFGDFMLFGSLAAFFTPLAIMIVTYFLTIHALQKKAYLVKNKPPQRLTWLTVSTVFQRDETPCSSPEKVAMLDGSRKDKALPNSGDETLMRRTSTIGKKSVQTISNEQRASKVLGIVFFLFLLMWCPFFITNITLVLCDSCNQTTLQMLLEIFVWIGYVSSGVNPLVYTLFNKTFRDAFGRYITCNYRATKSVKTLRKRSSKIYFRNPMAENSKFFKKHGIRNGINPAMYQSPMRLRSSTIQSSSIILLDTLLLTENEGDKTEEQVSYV

SMILES	residual activity [1]	residual activity [2]	residual activity [3]	residual activity [4]	residual activity [5]	residual activity [6]	residual activity [7]	residual activity [8]	inhibition [9]	residual activity [10]	residual activity [11]	inhibition [12]	inhibition [13]	residual activity [14]	residual activity [15]	Ki ([16]; read-out: Ki)	residual activity [17]	residual activity [18]	residual activity [19]	residual activity [20]	other results
CNCc1ccccc1-c1csc([C@H](C)Nc2nc(C)nc3cc(OC)c(OC)cc23)c1 [BAY-294]	80%	100%	98%	93%	100%	100%	97%	100%	97.3%	95%	100%	82.9%	70.3%	100%	100%	21.1 nM	100%	87%	96%	96%	residual activity [21]: 81%; residual activity [22]: 100%; residual activity [23]: 92%; residual activity [24]: 75%; residual activity [25]: 100%; residual activity [26]: 100%; residual activity [27]: 89%; residual activity [28]: 100%; residual activity [29]: 88%; residual activity [30]: 87%; residual activity [31]: 100%; residual activity [32]: 96%; residual activity [33]: 97%; inhibition [34]: 101%; residual activity [35]: 100%; residual activity [36]: 87%; residual activity [37]: 100%; residual activity [38]: 100%; residual activity [39]: 87%
CNCc1ccccc1-c1csc([C@@H](C)Nc2nc(C)nc3cc(OC)c(OC)cc23)c1 [BAY-293]	74%	95%	82%	88%	100%	90%	72%	92%	86.9%	94%	100%	64.2%	77.2%	100%	100%	140 nM	91%	100%	92%	79%	Ki ([16]; read-out: pKi (converted)): 140 nM; residual activity [21]: 79%; residual activity [22]: 100%; residual activity [23]: 92%; residual activity [24]: 91%; residual activity [25]: 100%; residual activity [26]: 95%; residual activity [27]: 90%; residual activity [28]: 83%; residual activity [29]: 85%; residual activity [30]: 91%; residual activity [31]: 91%; residual activity [32]: 93%; residual activity [33]: 81%; inhibition [34]: 100%; residual activity [35]: 100%; residual activity [36]: 86%; residual activity [37]: 97%; residual activity [38]: 84%; residual activity [39]: 83%
